Measurements taken from paper PMC9482650, “Quantitative fragmentomics allow affinity mapping of interactomes” (Nature Communications, 2022).
Read-outs that look alike come from different tables or passages of the source. Ends that are not written are not given here.

Key:
Assay in all cases: Holdup assay
Type in all cases: binding
DLG1_1 PDZ = DLG1_1 PDZ (Homo sapiens, UniProt Q12959)
SNX27 PDZ = SNX27 PDZ (Homo sapiens, UniProt Q96L92)
DLG1_2 PDZ = DLG1_2 PDZ (Homo sapiens, UniProt Q12959)
TX1BP3 PDZ = biological target: T1, TX1BP3 PDZ (Homo sapiens, UniProt O14907)
T1 sequence (O14907 15-112 limits assumed): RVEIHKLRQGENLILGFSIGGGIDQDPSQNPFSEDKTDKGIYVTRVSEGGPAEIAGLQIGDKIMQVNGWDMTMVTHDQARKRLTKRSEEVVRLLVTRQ

SCRIB2 PDZ = biological target: T2, SCRIB2 PDZ (Homo sapiens, UniProt Q14160)
T2 sequence (Q14160 862-950 limits assumed): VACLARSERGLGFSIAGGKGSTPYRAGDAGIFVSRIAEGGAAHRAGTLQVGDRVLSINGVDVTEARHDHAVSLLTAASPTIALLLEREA

SCRIB_1 PDZ = SCRIB_1 PDZ (Homo sapiens, UniProt Q14160)
Sequence of SCRIB_1 PDZ (Q14160 728-815 limits assumed): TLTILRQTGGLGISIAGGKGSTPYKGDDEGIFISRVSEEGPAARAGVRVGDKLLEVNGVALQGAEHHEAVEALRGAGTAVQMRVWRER

[1] = PBM motif of the named protein vs DLG1_1 PDZ, read-out: pKd values – domain-motif, DLG1_1 (converted)
[2] = PBM motif of the named protein vs DLG1_2 PDZ, read-out: pKd values – domain-motif, DLG1_2 (converted)
[3] = PBM motif of the named protein vs TX1BP3 PDZ, read-out: pKd values – domain-motif, TX1BP3 (converted)
[4] = PBM motif of the named protein vs SCRIB_2 PDZ, read-out: pKd values – domain-motif, SCRIB_2 (converted)
[5] = PBM motif of the named protein vs SCRIB_1 PDZ, read-out: pKd values – domain-motif, SCRIB_1 (converted)
[6] = holdup affinity of the PBM peptide of the named protein, sheet PBMcomplexome, lower sub-table
[7] = holdup affinity of the PBM peptide of the named protein, sheet PBMcomplexome, lower sub-table, 3.5 appears to be the floor for no detectable binding, read-out: affinity of PBM to DLG1_2 (pKd) (converted)
[8] = holdup affinity of the PBM peptide of the named protein, sheet PBMcomplexome, lower sub-table, 3.5 appears to be the floor for no detectable binding, read-out: affinity of PBM to TX1BP3 (pKd) (converted)
[9] = holdup affinity of the PBM peptide of the named protein, sheet PBMcomplexome, lower sub-table, 3.5 appears to be the floor for no detectable binding, read-out: affinity of PBM to SCRIB_2 (pKd) (converted)
[10] = holdup affinity of the PBM peptide of the named protein, sheet PBMcomplexome, lower sub-table, 3.5 appears to be the floor for no detectable binding, read-out: affinity of PBM to SCRIB_1 (pKd) (converted)

Compound	Kd (DLG1_1 PDZ; [1]) [µM]	Kd (SNX27 PDZ) [µM]	Kd (DLG1_2 PDZ; [2]) [µM]	Kd (TX1BP3 PDZ; [3]) [µM]	Kd (SCRIB2 PDZ; [4]) [µM]	Kd (SCRIB_1 PDZ; [5]) [µM]	Kd (DLG1_1 PDZ; holdup affinity of the PBM peptide of the named protein, sheet PBMcomplexome, lower sub-table, 3.5 appears to be the floor for no detectable binding, read-out: affinity of PBM to DLG1_1 (pKd) (converted)) [µM]	Kd (SNX27 PDZ; [6]) [µM]	Kd (DLG1_2 PDZ; [7]) [µM]	Kd (TX1BP3 PDZ; [8]) [µM]	Kd (SCRIB2 PDZ; [9]) [µM]	Kd (SCRIB_1 PDZ; [10]) [µM]
TESNLQTSSC [CGN]	–	22.4	–	–	–	–	–	–	–	–	–	–
CC(C)C[C@H](NC(=O)[C@H](CC(=O)O)NC(=O)[C@@H](NC(=O)[C@H](CC(=O)O)NC(=O)[C@H](Cc1ccccc1)NC(=O)[C@H](Cc1c[nH]c2ccccc12)NC(=O)[C@H](C)NC(=O)[C@H](CC(C)C)NC(=O)[C@H](CCC(N)=O)NC(=O)[C@@H](N)CC(N)=O)[C@@H](C)O)C(=O)O [CTNNB1]	–	12.3	–	1.02	269	13.8	–	–	–	–	–	–
KIEDVEITLV [FCHSD2]	162	9.77	50.1	105	–	158	–	–	–	–	–	–
KQVVPFSSSV [GDA]	129	295	41.7	49	–	309	–	–	–	–	–	–
GYDWGPATDL [TJP3/ZO3]	–	–	–	–	–	–	–	229	245	40.7	166	174

Now from value to compound:

Kd (DLG1_1 PDZ; [1]) [µM]	Kd (SNX27 PDZ) [µM]	Kd (DLG1_2 PDZ; [2]) [µM]	Kd (TX1BP3 PDZ; [3]) [µM]	Kd (SCRIB2 PDZ; [4]) [µM]	Kd (SCRIB_1 PDZ; [5]) [µM]	Kd (DLG1_1 PDZ; holdup affinity of the PBM peptide of the named protein, sheet PBMcomplexome, lower sub-table, 3.5 appears to be the floor for no detectable binding, read-out: affinity of PBM to DLG1_1 (pKd) (converted)) [µM]	Kd (SNX27 PDZ; [6]) [µM]	Kd (DLG1_2 PDZ; [7]) [µM]	Kd (TX1BP3 PDZ; [8]) [µM]	Kd (SCRIB2 PDZ; [9]) [µM]	Kd (SCRIB_1 PDZ; [10]) [µM]	Compound
53.7	35.5	45.7	251	34.7	155	–	–	–	–	–	–	LESTTVGTSV [KARS1]
–	–	–	–	–	–	49	15.8	22.4	1.26	25.7	17.8	PKRPFVESNV [TANC2]
